In patent US20170246204A1, “MEDICAMENT FOR TREATING A DISEASE RELATING TO A DYSFUNCTION OF THE DOPAMINERGIC SYNAPTIC TRANSMISSION” (L'Air Liquide, Société Anonyme pour l'Etude et …, priority 2014, published 2017):

Experiments:
[1] = test system: dopaminergic neurons (TH+) of rat mesencephalon cultures; test: tritiated dopamine reuptake per TH+ dopaminergic neuron in mesencephalon cultures; assay type: cell-based; conditions: D14; memantine 10 μM; 75% Xe or 75% N2; p<0.05, n=9
Procedure: Cultures are prepared from mesencephalon of rat embryos, taking from female Wistar rats, on day 15.5 of gestation.
The process for obtaining the mesencephalon cultures comprises the obtaining of a homogeneous cell suspension by mechanical dissociation, that is to say non-enzymatic dissociation, of the embryonic tissue, using Leibovitz's L15 medium (Sigma Aldrich).
Aliquots of this suspension are added to 48-well Nunc plates, which have been precoated with a thin layer of polyethyleneimine (1 mg/ml, borate buffer, pH 8.3) so as to allow the adhesion of neuronal cells (Toulorge et al., Faseb J, 2011).
The seeding density is between approximately 80 000 and 100 000 cells/cm^2.
The mesencephalon cultures are maintained in Minimum Essential culture Medium (MEM), containing 1 g/l of glucose, 2 mM of L-glutamine, 1 mM of sodium pyruvate, non-essential amino acids and a penicillin/streptomycin cocktail. For the first week of culture, this medium is supplemented with 10% of fetal calf serum and 10% of horse serum. Starting from the second week, the serum concentrations are reduced to 2% (Gao et al., J Neurosci, 2002).
Up until the moment when the effects of the gases of interest are evaluated, the cultures are placed in a conventional enclosure thermostated at 37° C., in which the CO2 is maintained at 5% by volume and wherein the atmosphere is saturated with water. […]

[2] = test system: dopaminergic neurons (TH+) of rat mesencephalon cultures; test: neurite length per TH+ dopaminergic neuron in mesencephalon cultures; assay type: cell-based; conditions: D14; memantine 10 μM; 75% Xe or 75% N2; p<0.05, n=9
Procedure: Cultures are prepared from mesencephalon of rat embryos, taking from female Wistar rats, on day 15.5 of gestation. The process for obtaining the mesencephalon cultures comprises the obtaining of a homogeneous cell suspension by mechanical dissociation, that is to say non-enzymatic dissociation, of the embryonic tissue, using Leibovitz's L15 medium (Sigma Aldrich). Aliquots of this suspension are added to 48-well Nunc plates, which have been precoated with a thin layer of polyethyleneimine (1 mg/ml, borate buffer, pH 8.3) so as to allow the adhesion of neuronal cells (Toulorge et al., Faseb J, 2011). The seeding density is between approximately 80 000 and 100 000 cells/cm^2. The mesencephalon cultures are maintained in Minimum Essential culture Medium (MEM), containing 1 g/l of glucose, 2 mM of L-glutamine, 1 mM of sodium pyruvate, non-essential amino acids and a penicillin/streptomycin cocktail. For the first week of culture, this medium is supplemented with 10% of fetal calf serum and 10% of horse serum. […] Up until the moment when the effects of the gases of interest are evaluated, the cultures are placed in a conventional enclosure thermostated at 37° C., in which the CO2 is maintained at 5% by volume and wherein the atmosphere is saturated with water. […] This parameter is evaluated with the same HCS Studio software.

SMILES | dopamine reuptake per TH^+ neuron, effect compared with control cultures under 75% nitrogen (FIG. 1) [1] | neurite length per TH^+ neuron, effect compared with control cultures under 75% nitrogen (FIG. 2) [2]
CC12CC3CC(C)(C1)CC(N)(C3)C2 [Memantine, memantine] | significantly greater | significantly greater
[Xe] [Xenon, xenon] | significantly greater | significantly greater
